In patent US20250034216A1, “STEREOSELECTIVE COVALENT LIGANDS FOR ONCOGENIC AND IMMUNOLOGICAL PROTEINS” (The Scripps Research Institute, priority 2021, published 2025):

Key:
SLC25A39_C334 = biological target: T1, SLC25A39_C334 (Homo sapiens, UniProt Q9BZJ4); assay: IA-DTB cysteine engagement; type: binding; details: 22Rv1 cells, 20 μM probe, 1 h, relative to DMSO
T1 construct: endogenous in cells; host or cells: 22Rv1
T1 sequence (Q9BZJ4 1-359): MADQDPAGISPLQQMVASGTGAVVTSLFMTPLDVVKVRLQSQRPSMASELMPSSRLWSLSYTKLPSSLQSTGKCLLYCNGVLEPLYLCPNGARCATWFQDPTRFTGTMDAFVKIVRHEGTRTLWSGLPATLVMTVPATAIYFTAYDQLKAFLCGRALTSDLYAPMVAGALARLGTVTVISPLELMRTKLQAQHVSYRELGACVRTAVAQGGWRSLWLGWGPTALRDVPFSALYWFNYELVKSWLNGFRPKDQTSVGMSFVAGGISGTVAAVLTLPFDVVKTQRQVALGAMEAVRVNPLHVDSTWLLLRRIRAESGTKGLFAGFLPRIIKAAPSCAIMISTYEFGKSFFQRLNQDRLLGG
Summary of the method: (§1)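 Cells were treated in situ with electrophilic probes, then lysed, and the lysates (2 mg/mL protein) were labeled with IA-DTB for 1 h at ambient temperature. After reduction, alkylation and trypsin digestion, labeled peptides were streptavidin-enriched, TMT-labeled and fractionated. Engagement ratios are probe vs DMSO reporter intensities, averaged across replicates.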

ZFAT_C392 = biological target: T2, ZFAT_C392 (Homo sapiens, UniProt Q9P243); assay: IA-DTB cysteine engagement; type: binding; details: 22Rv1 cells, 20 μM probe, 1 h, relative to DMSO
T2 construct: endogenous in cells; host or cells: 22Rv1
T2 sequence (Q9P243 1-1243): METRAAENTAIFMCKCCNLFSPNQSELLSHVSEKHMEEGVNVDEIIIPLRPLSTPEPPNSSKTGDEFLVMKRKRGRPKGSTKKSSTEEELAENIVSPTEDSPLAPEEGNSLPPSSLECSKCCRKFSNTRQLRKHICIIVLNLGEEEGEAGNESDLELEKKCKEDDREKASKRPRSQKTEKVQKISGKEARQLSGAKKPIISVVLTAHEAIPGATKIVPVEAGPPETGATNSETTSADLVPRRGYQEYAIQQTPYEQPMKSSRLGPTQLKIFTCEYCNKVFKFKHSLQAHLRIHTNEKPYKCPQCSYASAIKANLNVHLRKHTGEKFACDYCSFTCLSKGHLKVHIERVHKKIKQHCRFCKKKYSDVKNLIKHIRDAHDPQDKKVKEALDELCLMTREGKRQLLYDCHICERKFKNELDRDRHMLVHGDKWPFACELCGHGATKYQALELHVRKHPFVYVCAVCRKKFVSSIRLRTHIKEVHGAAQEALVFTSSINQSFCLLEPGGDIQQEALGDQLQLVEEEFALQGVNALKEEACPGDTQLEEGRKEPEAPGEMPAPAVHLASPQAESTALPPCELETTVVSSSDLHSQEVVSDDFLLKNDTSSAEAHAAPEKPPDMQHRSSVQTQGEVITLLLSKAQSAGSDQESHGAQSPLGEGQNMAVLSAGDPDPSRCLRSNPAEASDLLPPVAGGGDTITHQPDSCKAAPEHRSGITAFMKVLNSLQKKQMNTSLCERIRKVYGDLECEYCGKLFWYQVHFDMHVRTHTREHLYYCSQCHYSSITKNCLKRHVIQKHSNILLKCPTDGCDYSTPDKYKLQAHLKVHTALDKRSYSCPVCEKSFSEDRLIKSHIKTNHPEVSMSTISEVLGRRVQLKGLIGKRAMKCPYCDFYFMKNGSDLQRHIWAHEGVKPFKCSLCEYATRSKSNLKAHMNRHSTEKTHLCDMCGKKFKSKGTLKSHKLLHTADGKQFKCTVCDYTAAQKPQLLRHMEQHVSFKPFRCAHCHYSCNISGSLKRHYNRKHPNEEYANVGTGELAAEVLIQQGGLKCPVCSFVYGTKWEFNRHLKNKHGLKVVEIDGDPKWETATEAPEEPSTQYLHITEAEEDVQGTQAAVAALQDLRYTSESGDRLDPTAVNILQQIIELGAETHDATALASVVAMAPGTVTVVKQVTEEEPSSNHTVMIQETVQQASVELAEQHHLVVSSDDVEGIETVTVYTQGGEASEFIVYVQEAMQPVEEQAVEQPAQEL
Summary of the method: as §1

Row | Compound | % engagement SLC25A39_C334 (SLC25A39_C334) [%] | % engagement ZFAT_C392 (ZFAT_C392) [%]
1 | C=CC(=O)N1C[C@H](c2ccc(Br)cc2)[C@H]1C(=O)Nc1cccc2cccnc12 [MY-3A, (2S,3S)-1-acryloyl-3-(4-bromophenyl)-N-(quinolin-8-yl)azetidine-2-carboxamide] | 30.5 | 17.5
2 | C=CC(=O)N1C[C@H](c2ccc(Br)cc2)[C@@H]1C(=O)Nc1cccc2cccnc12 [MY-1B, (2R,3S)-1-acryloyl-3-(4-bromophenyl)-N-(quinolin-8-yl)azetidine-2-carboxamide] | 45.5 | 39
3 | C=CC(=O)N1C[C@H](c2ccc(Br)cc2)[C@H]1C(=O)Nc1cccc2cccnc12 [MY-3B, (2S,3S)-1-acryloyl-3-(4-bromophenyl)-N-(quinolin-8-yl)azetidine-2-carboxamide] | 72 | 68.5
4 | C=CC(=O)N1C[C@@H](c2ccc(Br)cc2)[C@H]1C(=O)Nc1cccc2cccnc12 [MY-1A, (2S,3R)-1-acryloyl-3-(4-bromophenyl)-N-(quinolin-8-yl)azetidine-2-carboxamide] | 23 | 32.5
